Source: ChEMBL document CHEMBL1201862, “PubChem BioAssay data set” (2004)
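Cultured in 96-well plates, cells were exposed to test compound for 48 hours across five concentrations. GI50 is the concentration that inhibits growth by half.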 Activity calls are given as the source filed them. Rule as the data show it: active = GI50 up to about 1.1 µM and inactive = higher.

Legend:
Assay in all cases: NCI-60 cell line screen, 48 h
SK-MEL-28 = tested on: SK-MEL-28
HCC 2998 = tested on: HCC 2998
U-251 = tested on: U-251
MDA-N = tested on: MDA-N
OVCAR-8 = tested on: OVCAR-8
TK-10 = tested on: TK-10
SK-MEL-2 = tested on: SK-MEL-2
HCT-15 = tested on: HCT-15
SK-MEL-5 = tested on: SK-MEL-5
OVCAR-3 = tested on: OVCAR-3
Malme-3M = tested on: Malme-3M
BT-549 = tested on: BT-549
EKVX = tested on: EKVX
RPMI-8226 = tested on: RPMI-8226
HCT-116 = tested on: HCT-116
HOP-92 = tested on: HOP-92
SW-620 = tested on: SW-620
M14 = tested on: M14
ACHN = tested on: ACHN
T47D = tested on: T47D
MOLT-4 = tested on: MOLT-4
HL-60 = tested on: HL-60
PC-3 = tested on: PC-3
KM12 = tested on: KM12
SF-539 = tested on: SF-539
MDA-MB-231 = tested on: MDA-MB-231
NCI/ADR-RES = tested on: NCI/ADR-RES
SF-268 = tested on: SF-268
OVCAR-4 = tested on: OVCAR-4
NCI-H460 = tested on: NCI-H460
SN12C = tested on: SN12C
UACC-62 = tested on: UACC-62
SF-295 = tested on: SF-295
MCF7 = tested on: MCF7
NCI-H226 = tested on: NCI-H226
IGROV-1 = tested on: IGROV-1
UACC-257 = tested on: UACC-257
K562 = tested on: K562
LOX IMVI = tested on: LOX IMVI
DU-145 = tested on: DU-145
RXF 393 = tested on: RXF 393
CCRF-CEM = tested on: CCRF-CEM
SNB-75 = tested on: SNB-75
OVCAR-5 = tested on: OVCAR-5
UO-31 = tested on: UO-31
786-0 = tested on: 786-0
SNB-19 = tested on: SNB-19
COLO 205 = tested on: COLO 205
Hs-578T = tested on: Hs-578T
CAKI-1 = tested on: CAKI-1
SR = tested on: SR
MDA-MB-435 = tested on: MDA-MB-435
NCI-H522 = tested on: NCI-H522
A549 = tested on: A549
HOP-62 = tested on: HOP-62
SK-OV-3 = tested on: SK-OV-3
HT-29 = tested on: HT-29
NCI-H23 = tested on: NCI-H23
A498 = tested on: A498

Structure (SMILES): CNN1C(=O)c2c(C)c(C)c(C#N)c(N)c2C1=O
- GI50 (SK-MEL-28): > 100 µM (inactive)
- GI50 (HCC 2998): > 100 µM (inactive)
- GI50 (U-251): > 100 µM (inactive)
- GI50 (MDA-N): > 100 µM (inactive)
- GI50 (OVCAR-8): > 100 µM (inactive)
- GI50 (TK-10): > 100 µM (inactive)
- GI50 (SK-MEL-2): > 100 µM (inactive)
- GI50 (HCT-15): > 100 µM
- GI50 (SK-MEL-5): > 100 µM (inactive)
- GI50 (OVCAR-3): > 100 µM (inactive)
- GI50 (Malme-3M): > 100 µM (inactive)
- GI50 (BT-549): > 100 µM (inactive)
- GI50 (EKVX): > 100 µM (inactive)
- GI50 (RPMI-8226): > 100 µM (inactive)
- GI50 (HCT-116): > 100 µM (inactive)
- GI50 (HOP-92): > 100 µM (inactive)
- GI50 (SW-620): > 100 µM (inactive)
- GI50 (M14): > 100 µM (inactive)
- GI50 (ACHN): > 100 µM (inactive)
- GI50 (T47D): > 100 µM (inactive)
- GI50 (MOLT-4): > 100 µM (inactive)
- GI50 (HL-60): > 100 µM (inactive)
- GI50 (PC-3): > 100 µM (inactive)
- GI50 (KM12): > 100 µM (inactive)
- GI50 (SF-539): > 100 µM (inactive)
- GI50 (MDA-MB-231): > 100 µM (inactive)
- GI50 (NCI/ADR-RES): > 100 µM (inactive)
- GI50 (SF-268): > 100 µM (inactive)
- GI50 (OVCAR-4): > 100 µM (inactive)
- GI50 (NCI-H460): > 100 µM (inactive)
- GI50 (SN12C): > 100 µM (inactive)
- GI50 (UACC-62): > 100 µM (inactive)
- GI50 (SF-295): > 100 µM (inactive)
- GI50 (MCF7): > 100 µM (inactive)
- GI50 (NCI-H226): > 100 µM (inactive)
- GI50 (IGROV-1): > 100 µM (inactive)
- GI50 (UACC-257): > 100 µM (inactive)
- GI50 (K562): > 100 µM (inactive)
- GI50 (LOX IMVI): > 100 µM (inactive)
- GI50 (DU-145): > 100 µM (inactive)
- GI50 (RXF 393): 40.8 µM (inactive)
- GI50 (CCRF-CEM): > 100 µM (inactive)
- GI50 (SNB-75): 83.2 µM (inactive)
- GI50 (OVCAR-5): > 100 µM (inactive)
- GI50 (UO-31): > 100 µM (inactive)
- GI50 (786-0): > 100 µM (inactive)
- GI50 (SNB-19): > 100 µM (inactive)
- GI50 (COLO 205): > 100 µM (inactive)
- GI50 (Hs-578T): > 100 µM (inactive)
- GI50 (CAKI-1): > 100 µM (inactive)
- GI50 (SR): > 100 µM (inactive)
- GI50 (MDA-MB-435): > 100 µM (inactive)
- GI50 (NCI-H522): > 100 µM (inactive)
- GI50 (A549): > 100 µM (inactive)

Structure (SMILES): CCOC(=O)c1nc2ccc(C(F)(F)F)cc2[nH]c1=O
- GI50 (SK-MEL-28): > 100 µM (inactive)
- GI50 (HCC 2998): > 100 µM (inactive)
- GI50 (U-251): > 100 µM (inactive)
- GI50 (MDA-N): > 100 µM (inactive)
- GI50 (OVCAR-8): > 100 µM (inactive)
- GI50 (TK-10): > 100 µM (inactive)
- GI50 (HOP-62): > 100 µM (inactive)
- GI50 (SK-MEL-2): > 100 µM (inactive)
- GI50 (HCT-15): > 100 µM
- GI50 (SK-OV-3): > 100 µM (inactive)
- GI50 (SK-MEL-5): > 100 µM (inactive)
- GI50 (OVCAR-3): > 100 µM (inactive)
- GI50 (BT-549): > 100 µM (inactive)
- GI50 (RPMI-8226): > 100 µM (inactive)
- GI50 (HCT-116): > 100 µM (inactive)
- GI50 (HOP-92): > 100 µM (inactive)
- GI50 (SW-620): > 100 µM (inactive)
- GI50 (HT-29): > 100 µM (inactive)
- GI50 (M14): > 100 µM (inactive)
- GI50 (ACHN): > 100 µM (inactive)
- GI50 (T47D): > 100 µM (inactive)
- GI50 (MOLT-4): > 100 µM (inactive)
- GI50 (HL-60): > 100 µM (inactive)
- GI50 (PC-3): > 100 µM (inactive)
- GI50 (KM12): > 100 µM (inactive)
- GI50 (SF-539): > 100 µM (inactive)
- GI50 (MDA-MB-231): > 100 µM (inactive)
- GI50 (NCI/ADR-RES): > 100 µM (inactive)
- GI50 (SF-268): > 100 µM (inactive)
- GI50 (OVCAR-4): > 100 µM (inactive)
- GI50 (NCI-H460): > 100 µM (inactive)
- GI50 (NCI-H23): > 100 µM (inactive)
- GI50 (SN12C): > 100 µM (inactive)
- GI50 (UACC-62): > 100 µM (inactive)
- GI50 (SF-295): > 100 µM (inactive)
- GI50 (MCF7): > 100 µM (inactive)
- GI50 (NCI-H226): > 100 µM (inactive)
- GI50 (IGROV-1): > 100 µM (inactive)
- GI50 (UACC-257): > 100 µM (inactive)
- GI50 (K562): > 100 µM (inactive)
- GI50 (LOX IMVI): > 100 µM (inactive)
- GI50 (DU-145): > 100 µM (inactive)
- GI50 (RXF 393): > 100 µM (inactive)
- GI50 (A498): > 100 µM (inactive)
- GI50 (CCRF-CEM): > 100 µM (inactive)
- GI50 (OVCAR-5): > 100 µM (inactive)
- GI50 (UO-31): > 100 µM (inactive)
- GI50 (786-0): > 100 µM (inactive)
- GI50 (SNB-19): > 100 µM (inactive)
- GI50 (COLO 205): > 100 µM (inactive)
- GI50 (Hs-578T): 82 µM (inactive)
- GI50 (CAKI-1): > 100 µM (inactive)
- GI50 (SR): > 100 µM (inactive)
- GI50 (MDA-MB-435): > 100 µM (inactive)
- GI50 (A549): > 100 µM (inactive)
